Assay results published in ChEMBL document CHEMBL3745700, “Functionalised isocoumarins as antifungal compounds: Synthesis and biological studies” (Bioorg Med Chem Lett, 2016).
≈ marks a conversion by molar mass, not a printed value. Calls of active or inactive are those of the source. No cut-off for these calls is given here.

test system: Candida albicans; test: Stimulation of hyphal formation in Candida albicans ATCC 10231 at MIC70 after 36 hrs by microscopic analysis; type: functional, organism-based; conditions: not given

Structure (SMILES)	Activity
CCOC(=O)c1cn(-c2cc3ccccc3c(=O)o2)cn1	Active
O=c1oc(-n2c(C(F)(F)F)nc3ccccc32)cc2ccccc12	Active
C[Si](C)(C)C#Cc1cc2ccccc2c(=O)o1	Active

test system: Candida albicans; test: Antifungal activity against Candida albicans ATCC 10231 assessed as inhibition of hyphal formation at MIC70 after 36 hrs by microscopic analysis; type: functional, organism-based; conditions: not given

Structure (SMILES)	inhibition
O=c1oc(Br)cc2ccccc12	Active
C[C@@H](c1ncncc1F)[C@](O)(Cn1cncn1)c1ccc(F)cc1F [VORICONAZOLE]	Active
O=c1oc(-n2cccn2)cc2ccccc12	Active
O=c1oc(-n2cc(Cl)cn2)cc2ccccc12	Active
COC(=O)/C=C/c1cc2ccccc2c(=O)o1	Active
O=c1oc(-n2ccnc2)cc2ccccc12	Active
O=c1oc(-n2cnnn2)cc2ccccc12	Active
O=c1oc(-n2cncn2)cc2ccccc12	Active

test system: Candida albicans; test: Antifungal activity against Candida albicans ATCC 10231 by broth microdilution method; type: functional; conditions: not given

Structure (SMILES)	MIC
O=c1oc(Br)cc2ccccc12	15.6 µg/mL (≈ 69.3 µM)
C[C@@H](c1ncncc1F)[C@](O)(Cn1cncn1)c1ccc(F)cc1F [VORICONAZOLE]	7.8 µg/mL (≈ 22.3 µM)
O=c1oc(-n2cccn2)cc2ccccc12	31.2 µg/mL (≈ 147 µM)
CCOC(=O)c1cn(-c2cc3ccccc3c(=O)o2)cn1	62.5 µg/mL (≈ 220 µM)
O=c1oc(-n2cc(Cl)cn2)cc2ccccc12	5 µg/mL (≈ 20.3 µM)
COC(=O)/C=C/c1cc2ccccc2c(=O)o1	500 µg/mL (≈ 2170 µM)
O=c1oc(-n2c(C(F)(F)F)nc3ccccc32)cc2ccccc12	150 µg/mL (≈ 454 µM)
O=c1oc(-n2ccnc2)cc2ccccc12	62.5 µg/mL (≈ 295 µM)
C[Si](C)(C)C#Cc1cc2ccccc2c(=O)o1	250 µg/mL (≈ 1030 µM)
O=c1oc(-n2cnnn2)cc2ccccc12	15.6 µg/mL (≈ 72.8 µM)
O=c1oc(-n2cncn2)cc2ccccc12	20 µg/mL (≈ 93.8 µM)

test system: MRC5; test: Cytotoxicity against human MRC5 cells after 48 hrs by MTT assay; type: cell-based; conditions: MRC5, 48 h

Structure (SMILES)	IC50
O=c1oc(Br)cc2ccccc12	20 µg/mL (≈ 88.9 µM)
C[C@@H](c1ncncc1F)[C@](O)(Cn1cncn1)c1ccc(F)cc1F [VORICONAZOLE]	40 µg/mL (≈ 115 µM)
O=c1oc(-n2cccn2)cc2ccccc12	30 µg/mL (≈ 141 µM)
CCOC(=O)c1cn(-c2cc3ccccc3c(=O)o2)cn1	25 µg/mL (≈ 87.9 µM)
O=c1oc(-n2cc(Cl)cn2)cc2ccccc12	15 µg/mL (≈ 60.8 µM)
COC(=O)/C=C/c1cc2ccccc2c(=O)o1	30 µg/mL (≈ 130 µM)
O=c1oc(-n2c(C(F)(F)F)nc3ccccc32)cc2ccccc12	15 µg/mL (≈ 45.4 µM)
O=c1oc(-n2ccnc2)cc2ccccc12	25 µg/mL (≈ 118 µM)
C[Si](C)(C)C#Cc1cc2ccccc2c(=O)o1	30 µg/mL (≈ 124 µM)
O=c1oc(-n2cnnn2)cc2ccccc12	10 µg/mL (≈ 46.7 µM)
O=c1oc(-n2cncn2)cc2ccccc12	40 µg/mL (≈ 188 µM)

test system: Candida albicans; test: Antifungal activity against Candida albicans ATCC 10231 assessed as growth inhibition at 250 ug/disc by disc diffusion method; type: functional, organism-based; conditions: not given

Structure (SMILES)	growth inhibition (GI)
O=c1oc(Br)cc2ccccc12	Active
COC(=O)/C=C/c1cc2ccccc2c(=O)o1	Active
C[Si](C)(C)C#Cc1cc2ccccc2c(=O)o1	Active

test system: not listed separately; test: Hemolytic activity in Sheep RBC at MIC and IC50 after 1 hr by multiplate reader analysis; type: ADME, cell-based, Ovis aries; conditions: erythrocyte

Structure (SMILES)	Activity
O=c1oc(Br)cc2ccccc12	Non-toxic
O=c1oc(-n2cccn2)cc2ccccc12	Non-toxic
O=c1oc(-n2cc(Cl)cn2)cc2ccccc12	Non-toxic
COC(=O)/C=C/c1cc2ccccc2c(=O)o1	Non-toxic
O=c1oc(-n2ccnc2)cc2ccccc12	Non-toxic
C[Si](C)(C)C#Cc1cc2ccccc2c(=O)o1	Non-toxic
O=c1oc(-n2cnnn2)cc2ccccc12	Non-toxic
O=c1oc(-n2cncn2)cc2ccccc12	Non-toxic

test system: Candida parapsilosis; test: Antifungal activity against azole-resistant Candida parapsilosis CA-27 clinical isolate by broth microdilution method; type: functional; conditions: not given

Structure (SMILES)	MIC
C[C@@H](c1ncncc1F)[C@](O)(Cn1cncn1)c1ccc(F)cc1F [VORICONAZOLE]	inactive

same assay, conditions: Lodderomyces parapsilosis

Structure (SMILES)	MIC
O=c1oc(Br)cc2ccccc12	62.5 µg/mL (≈ 278 µM)
O=c1oc(-n2cccn2)cc2ccccc12	> 500 µg/mL
CCOC(=O)c1cn(-c2cc3ccccc3c(=O)o2)cn1	> 500 µg/mL
O=c1oc(-n2cc(Cl)cn2)cc2ccccc12	> 500 µg/mL
O=c1oc(-n2cnnn2)cc2ccccc12	125 µg/mL (≈ 584 µM)
O=c1oc(-n2cncn2)cc2ccccc12	> 500 µg/mL

test system: Candida albicans; test: Antifungal activity against Candida albicans ATCC 10231 assessed as inhibition of biofilm formation at MIC70 after 48 hrs by propidium iodide/Concanavaline A-FITC staining-based fluorescence microscopic analysis; type: functional, organism-based; conditions: not given

Structure (SMILES)	inhibition
CCOC(=O)c1cn(-c2cc3ccccc3c(=O)o2)cn1	Active
O=c1oc(-n2cncn2)cc2ccccc12	Active

test system: Pichia kudriavzevii; test: Antifungal activity against azole-resistant Candida krusei ATCC 6258 by broth microdilution method; type: functional; conditions: not given

Structure (SMILES)	MIC
O=c1oc(Br)cc2ccccc12	3.9 µg/mL (≈ 17.3 µM)
C[C@@H](c1ncncc1F)[C@](O)(Cn1cncn1)c1ccc(F)cc1F [VORICONAZOLE]	inactive
O=c1oc(-n2cccn2)cc2ccccc12	> 500 µg/mL
CCOC(=O)c1cn(-c2cc3ccccc3c(=O)o2)cn1	> 500 µg/mL
O=c1oc(-n2cc(Cl)cn2)cc2ccccc12	125 µg/mL (≈ 507 µM)
O=c1oc(-n2cnnn2)cc2ccccc12	62.5 µg/mL (≈ 292 µM)
O=c1oc(-n2cncn2)cc2ccccc12	125 µg/mL (≈ 586 µM)

test system: Candida albicans; test: Binding affinity to Candida albicans ATCC 10231 DNA assessed as degradation at 25 ug/ml after 12 hrs by agarose gel electrophoresis; conditions: not given

Structure (SMILES)	Activity
O=c1oc(Br)cc2ccccc12	inactive
O=c1oc(-n2cccn2)cc2ccccc12	inactive
COC(=O)/C=C/c1cc2ccccc2c(=O)o1	inactive
O=c1oc(-n2ccnc2)cc2ccccc12	inactive
C[Si](C)(C)C#Cc1cc2ccccc2c(=O)o1	inactive
O=c1oc(-n2cnnn2)cc2ccccc12	inactive
O=c1oc(-n2cncn2)cc2ccccc12	inactive
